Source: patent US20050107338A1, “Nutritional supplement enhancing mitochondrial function” (priority 2003, published 2005)

Columns and labels:
[1] = Age-related hearing loss in subjects treated separately with the compounds; format: in vivo; conditions: subjects treated separately with each compound
COX and SDH = COX and SDH levels in mitochondria of dosed rats; format: in vivo; conditions: daily dosing per Table 2, after one month, COX and SDH averaged, vs control group 7
Description: A group of 154 rats are evenly divided between a control group and six study groups, resulting in 22 animals per group.
The change from baseline relative to the last study month in the levels of COX and SDH is compared among the seven study groups using one-way analysis of variance (ANOVA). The Dunnett t-test procedure is used to compare the control group to each of the six treatment groups. As a secondary analysis to evaluate for trends across time, repeated measures of ANOVA are to be used to compare the groups regarding the change in the COX and SDH levels over the three-month time intervals. […]
The assay for SDH measures the reduction of 2,6-dichlorophenolindophenol (DCPIP) when coupled to […] reduction of decylubiquinone (DB), monitoring the absorbance at 600 minus […] (extinction coefficient 19.1 mM^−1cm^−1) (Singer T P, 1976). The reduction of DCPIP is measured at 600 minus 520 nm in a 1 ml cuvette at 30° C. […] Antimycin A (2 μg/ml), rotenone (2 μg/ml), KCN (2 mM), and 50 μM DCPIP are added to the sample and the blank rate is recorded for 1 minute. The reaction is initiated by the addition of 50 uM DB and change in absorbance is monitored for 3 minutes.
The activity of cytochrome-c oxidase (COX) is measured by following the oxidation of reduced cytochrome c at 550 minus 540 nm (extinction coefficient 19.0 mM^−1 cm^−1) (Errede B, et al. 1996). […]

complex III = biological target: T1, complex III (Rattus norvegicus, UniProt P00159); conditions: by competition with coenzyme Q; cited from earlier work
T1 construct: decrease complex III activity in rat brain; host or cells: rat brain (mitochondria)

[2] = tested on: mitochondrial transcripts; conditions: pretreatment of senescent rats; time and dose-dependent; cited from earlier work

Structure (SMILES): O=C(O)CCCCC1CCSS1 (stereo not shown) [Study group 1, lipoic acid]
- age-related hearing loss [1]: improvement
- increase in COX and SDH relative to the control group (COX and SDH): 10%

Structure (SMILES): CC(=O)N[C@@H](CS)C(=O)O [Study group 2, N-acetyl cysteine, reference compound]
- increase in COX and SDH relative to the control group (COX and SDH): 15%

Structure (SMILES): Oc1ccc(C=Cc2cc(O)cc(O)c2)cc1 [Study group 3, resveratrol]
- complex III activity in rat brain (complex III): decrease
- age-related hearing loss [1]: improvement

Structure (SMILES): CC(=O)O[C@H](CC(=O)[O-])C[N+](C)(C)C [acetyl-L-carnitine]
- age-related hearing loss [1]: improvement
- levels of mitochondrial transcripts [2]: bring back the levels of mitochondrial transcripts to adult levels
